For 12 compounds, GI50 and TGI results are on record in PubChem BioAssay (NCI).

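Dose response: 5 concentrations. Exposure: 48 h. Format: 96-well plates. Endpoint: linear interpolation; highest concentration if not reached. GI50 marks 50% less growth. TGI: concentration producing complete growth inhibition.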

Test systems include 786-0 renal; RPMI-8226 leukemia; NCI-H460 lung; KM12 colon; MOLT-4 leukemia; CAKI-1 renal; SF-539 CNS; HCT-15 colon; UACC-62 melanoma; HCC-2998 colon.
Test in all cases: DTP human tumour cell line panel, 48 h

A word on the GI50: it is the concentration that inhibits growth by half. As usually defined, the TGI is the concentration at which net growth stops. High values mean less potent growth arrest, low ones more potent growth arrest. For `Oc1ccc(Br)cc1Sc1cc(Br)ccc1O`, the GI50 was 18.6 µM in the assay on 786-0 renal; 3.18 µM with RPMI-8226 leukemia; 5.1 µM in the assay on NCI-H460 lung; 17 µM in the assay on KM12 colon; 7.37 µM in the assay with MOLT-4 leukemia; 18.7 µM with CAKI-1 renal. Further, the GI50 in the assay with SF-539 CNS is 4.66 µM; in the assay with HCT-15 colon, 5.93 µM. Also, the TGI worked out at 35.4 µM in the assay on 786-0 renal; 15.6 µM in the assay with RPMI-8226 leukemia; 20 µM in the assay with NCI-H460 lung; 33.3 µM in the assay on KM12 colon; 38.4 µM with MOLT-4 leukemia; 45.5 µM with CAKI-1 renal. Further, the TGI with SF-539 CNS was determined as 18.7 µM; in the assay with HCT-15 colon it was 22 µM.

Take `CC(C)=CC(C(O)c1ccccc1)S(=O)(=O)c1nccn1C` (stereo unspecified): the TGI in the assay on UACC-62 melanoma, in the assay with HCC-2998 colon, in the assay with 786-0 renal, in the assay on RPMI-8226 leukemia, with NCI-H460 lung and in the assay on KM12 colon was more than 100 µM in each case. Also, the TGI in the assay with MOLT-4 leukemia, with SF-539 CNS and with HCT-15 colon was more than 100 µM each time.

Consider `CN(C)CCNc1nc2ccccc2c2c1c1c(n2Cc2ccccc2)-c2ccccc2C1=O`, for which the GI50 is 18.3 µM in the assay with UACC-62 melanoma; 19.2 µM in the assay on 786-0 renal; 2.78 µM in the assay on RPMI-8226 leukemia; 10.5 µM in the assay on NCI-H460 lung; 4.77 µM with MOLT-4 leukemia; 18 µM in the assay on CAKI-1 renal. The GI50 in the assay on SF-539 CNS is 14 µM; with HCT-15 colon, 10.7 µM. Besides, the TGI in the assay on UACC-62 melanoma was 34.3 µM; in the assay on 786-0 renal, 38.3 µM; in the assay on RPMI-8226 leukemia, 17.7 µM; with NCI-H460 lung, 26.7 µM; with MOLT-4 leukemia, 18.5 µM; with CAKI-1 renal it was 37.1 µM. Also, the TGI in the assay with SF-539 CNS came out at 29.4 µM; in the assay on HCT-15 colon, 26.1 µM.

For `COP1(=O)CC2C(Cl)(Cl)C2(C)C1` (stereo unspecified), the TGI in the assay on UACC-62 melanoma, in the assay with HCC-2998 colon, with 786-0 renal, in the assay on RPMI-8226 leukemia, with NCI-H460 lung and in the assay with KM12 colon was more than 100 µM each time. The TGI in the assay on MOLT-4 leukemia and in the assay on SF-539 CNS was more than 100 µM each time.

Turning to `Cc1c(CCCl)c(=O)n2c([nH]c3ccccc32)c1C#N`, the TGI with UACC-62 melanoma was 2.75 µM; in the assay on 786-0 renal, 2.84 µM; with RPMI-8226 leukemia, 7.45 µM; with NCI-H460 lung, 3.96 µM; in the assay on KM12 colon, 3.14 µM; with MOLT-4 leukemia, 1.44 µM. Moreover, the TGI in the assay on CAKI-1 renal was 2.77 µM; with SF-539 CNS, 2.79 µM; with HCT-15 colon, 2.93 µM.

`CC(=O)O/N=C/c1ncccc1CO`: the TGI with UACC-62 melanoma, in the assay on 786-0 renal, in the assay on NCI-H460 lung, with KM12 colon, in the assay on MOLT-4 leukemia and with CAKI-1 renal was more than 100 µM throughout. For the same compound, the TGI in the assay on SF-539 CNS and in the assay on HCT-15 colon was more than 100 µM each time.

For the compound `CC1(C)C=CC[C@]2(C)[C@H]3CC[C@@H]4[C@H]5[C@H](C(=O)/C=C/c6cccnc6)CC[C@]5(CO)CC[C@@]4(C)[C@]3(C)CC[C@@H]12`, the GI50 was 1.23 µM in the assay with UACC-62 melanoma; 1.64 µM with 786-0 renal; 0.843 µM with RPMI-8226 leukemia; 1.03 µM with NCI-H460 lung; 1.01 µM in the assay with KM12 colon; 0.539 µM in the assay on MOLT-4 leukemia. Also, the GI50 in the assay with CAKI-1 renal is 1.06 µM; in the assay on SF-539 CNS, 1.5 µM. The TGI in the assay with UACC-62 melanoma was determined as 2.55 µM; in the assay with 786-0 renal it was 3.15 µM; in the assay on RPMI-8226 leukemia, 5.35 µM; with NCI-H460 lung, 2.41 µM; in the assay with KM12 colon it was 2.42 µM; in the assay with MOLT-4 leukemia, 2.94 µM. For the same compound, the TGI in the assay on CAKI-1 renal came out at 2.33 µM; in the assay on SF-539 CNS, 2.87 µM.

On to `CC(=O)N/C(=C\c1ccc(/C=C(\NC(C)=O)c2nc3ccc(Cl)cc3[nH]2)cc1)c1nc2ccccc2[nH]1`, for which the total growth inhibition concentration (TGI) in the assay on UACC-62 melanoma, in the assay on 786-0 renal, with RPMI-8226 leukemia, in the assay on NCI-H460 lung, with KM12 colon and in the assay with MOLT-4 leukemia was more than 100 µM each time. Moreover, the TGI in the assay on CAKI-1 renal, in the assay on SF-539 CNS and in the assay on HCT-15 colon was more than 100 µM in each case.

In the case of `O=C(Nc1ccccc1)c1ccc(Cl)c([N+](=O)[O-])c1`, the TGI in the assay with UACC-62 melanoma turned out to be 24.9 µM; in the assay with 786-0 renal, 20.8 µM; with RPMI-8226 leukemia, 37.6 µM; in the assay on NCI-H460 lung, 98.9 µM; in the assay with KM12 colon it was 12.7 µM; in the assay with MOLT-4 leukemia, 21.8 µM. Moreover, the TGI came to 40.4 µM in the assay on CAKI-1 renal, 60.5 µM in the assay on SF-539 CNS and 46.5 µM with HCT-15 colon.

For the compound `Nc1ccc(C(=O)N/C(=C\C=C\c2ccco2)c2nc3[nH]c(=S)[nH]c(=O)c3[nH]2)cc1`, the TGI with HCC-2998 colon, with 786-0 renal, in the assay on KM12 colon, in the assay on MOLT-4 leukemia, with CAKI-1 renal and in the assay with SF-539 CNS was more than 100 µM throughout. The compound further gave a TGI in the assay on HCT-15 colon of more than 100 µM.

For `COc1cc(-c2nc3ccc(C)cc3[nH]2)ccc1OCC(=O)N=Nc1c(O)[nH]c2ccccc12`, the GI50 with UACC-62 melanoma was 1.76 µM; in the assay with HCC-2998 colon, 1.86 µM; in the assay with 786-0 renal, 1.76 µM; with NCI-H460 lung, 1.85 µM; in the assay with KM12 colon, 1.83 µM; in the assay with CAKI-1 renal, 1.66 µM. The GI50 in the assay with SF-539 CNS was 1.62 µM; in the assay with HCT-15 colon, 4.18 µM. The TGI in the assay on UACC-62 melanoma amounted to 3.31 µM; in the assay on HCC-2998 colon it was 3.31 µM; in the assay on 786-0 renal it was 3.24 µM; in the assay with NCI-H460 lung it was 3.73 µM; in the assay with KM12 colon, 3.54 µM; in the assay with CAKI-1 renal, 3.07 µM. The results for the TGI in the assay with SF-539 CNS and in the assay with HCT-15 colon were 3.01 µM and more than 100 µM, respectively.

For the compound `CCOC(=O)C(C)(C)Oc1ccc2c(=O)cc(-c3ccc(Cl)cc3)oc2c1`, the TGI in the assay on UACC-62 melanoma, in the assay on HCC-2998 colon, in the assay on 786-0 renal, in the assay on RPMI-8226 leukemia, in the assay with NCI-H460 lung and in the assay with MOLT-4 leukemia was more than 100 µM throughout. Further, the TGI in the assay with SF-539 CNS and in the assay with HCT-15 colon was more than 100 µM in each case.
